Results taken from patent US8569344B2, “N-piperidinyl acetamide derivatives as calcium channel blockers” (Zalicus Pharmaceuticals Ltd., priority 2008, dated 2013).

Tests used:
[1] = biological target: T1, human α1G T-type channels (Homo sapiens, UniProt O43497); experiment: T-type calcium channel block, whole cell patch clamp in HEK cells (α1G); type: cell-based; conditions: HEK cells, patch clamp, mainly non-inactivated protocol; values above 10 μM shown as 10 μM, below 0.30 μM shown as 0.30 μM; read-out: T-type Calcium Channel Block α1G IC50
T1 construct: expressed in transfected cells; host or cells: HEK 293

[2] = biological target: T2, human α1H T-type channels (Homo sapiens, UniProt O95180); experiment: T-type calcium channel block, whole cell patch clamp in HEK cells (α1H); type: cell-based; conditions: HEK cells, patch clamp, mainly non-inactivated protocol; values above 10 μM shown as 10 μM; read-out: T-type Calcium Channel Block α1H IC50
T2 construct: expressed in transfected cells; host or cells: HEK 293
T2 sequence (O95180 whole entry): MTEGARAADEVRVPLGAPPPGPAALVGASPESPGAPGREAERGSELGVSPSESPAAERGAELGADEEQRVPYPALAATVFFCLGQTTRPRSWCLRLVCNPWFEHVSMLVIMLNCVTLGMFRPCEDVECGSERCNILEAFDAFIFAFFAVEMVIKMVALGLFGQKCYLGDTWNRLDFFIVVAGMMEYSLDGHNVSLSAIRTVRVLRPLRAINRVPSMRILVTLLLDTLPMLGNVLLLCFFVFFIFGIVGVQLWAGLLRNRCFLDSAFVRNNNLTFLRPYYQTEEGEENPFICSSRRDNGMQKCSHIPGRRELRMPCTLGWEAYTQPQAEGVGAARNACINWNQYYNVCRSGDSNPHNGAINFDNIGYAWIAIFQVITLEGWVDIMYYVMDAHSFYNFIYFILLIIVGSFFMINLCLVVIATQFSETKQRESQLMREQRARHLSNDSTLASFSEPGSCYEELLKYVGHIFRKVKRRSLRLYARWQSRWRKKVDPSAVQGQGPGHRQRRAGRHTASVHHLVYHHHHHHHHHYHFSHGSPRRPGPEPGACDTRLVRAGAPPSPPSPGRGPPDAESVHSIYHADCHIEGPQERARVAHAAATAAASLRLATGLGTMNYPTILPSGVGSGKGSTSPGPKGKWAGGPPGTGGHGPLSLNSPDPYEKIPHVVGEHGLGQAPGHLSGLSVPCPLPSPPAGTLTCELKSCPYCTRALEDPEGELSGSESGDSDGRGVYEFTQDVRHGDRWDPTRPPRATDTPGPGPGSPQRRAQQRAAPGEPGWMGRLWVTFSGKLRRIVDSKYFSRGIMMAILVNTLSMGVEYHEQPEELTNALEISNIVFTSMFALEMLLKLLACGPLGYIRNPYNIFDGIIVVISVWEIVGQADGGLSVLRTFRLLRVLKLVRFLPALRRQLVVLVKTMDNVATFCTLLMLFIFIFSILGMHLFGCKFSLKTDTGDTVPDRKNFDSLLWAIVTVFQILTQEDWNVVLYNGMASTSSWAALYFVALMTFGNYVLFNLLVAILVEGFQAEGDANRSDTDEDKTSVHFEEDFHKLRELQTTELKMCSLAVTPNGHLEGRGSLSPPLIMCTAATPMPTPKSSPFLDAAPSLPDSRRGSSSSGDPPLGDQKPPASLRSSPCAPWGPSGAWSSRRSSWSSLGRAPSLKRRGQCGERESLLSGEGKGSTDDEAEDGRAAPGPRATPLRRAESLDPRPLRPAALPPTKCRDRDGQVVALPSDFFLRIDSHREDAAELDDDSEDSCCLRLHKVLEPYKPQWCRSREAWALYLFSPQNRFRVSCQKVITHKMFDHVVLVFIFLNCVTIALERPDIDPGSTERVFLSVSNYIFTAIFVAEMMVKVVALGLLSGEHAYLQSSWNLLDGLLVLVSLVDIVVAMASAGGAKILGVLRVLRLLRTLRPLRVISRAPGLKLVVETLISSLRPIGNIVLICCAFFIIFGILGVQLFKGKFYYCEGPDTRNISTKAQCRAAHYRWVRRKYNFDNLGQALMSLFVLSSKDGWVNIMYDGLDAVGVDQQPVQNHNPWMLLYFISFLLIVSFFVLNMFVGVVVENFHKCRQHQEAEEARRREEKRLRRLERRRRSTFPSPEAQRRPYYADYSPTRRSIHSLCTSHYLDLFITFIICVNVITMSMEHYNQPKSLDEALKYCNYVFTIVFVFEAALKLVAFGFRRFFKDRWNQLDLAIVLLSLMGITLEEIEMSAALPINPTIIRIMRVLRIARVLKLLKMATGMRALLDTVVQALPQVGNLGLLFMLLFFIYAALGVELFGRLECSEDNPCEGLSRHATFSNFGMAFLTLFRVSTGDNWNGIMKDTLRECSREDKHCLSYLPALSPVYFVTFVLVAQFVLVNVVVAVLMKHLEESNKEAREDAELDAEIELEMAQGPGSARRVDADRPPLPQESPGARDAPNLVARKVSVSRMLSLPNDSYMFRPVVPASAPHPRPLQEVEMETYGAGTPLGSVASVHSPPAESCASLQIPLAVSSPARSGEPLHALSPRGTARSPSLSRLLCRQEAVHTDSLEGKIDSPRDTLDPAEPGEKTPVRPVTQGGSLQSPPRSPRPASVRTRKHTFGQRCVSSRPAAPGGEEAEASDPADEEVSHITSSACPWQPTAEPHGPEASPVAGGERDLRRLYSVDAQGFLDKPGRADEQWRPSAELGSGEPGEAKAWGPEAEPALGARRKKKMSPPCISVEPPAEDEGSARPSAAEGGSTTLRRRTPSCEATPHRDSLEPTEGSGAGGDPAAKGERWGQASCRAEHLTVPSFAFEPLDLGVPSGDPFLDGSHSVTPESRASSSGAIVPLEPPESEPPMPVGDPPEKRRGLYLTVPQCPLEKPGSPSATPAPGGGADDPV

T1 sequence (O43497 whole entry): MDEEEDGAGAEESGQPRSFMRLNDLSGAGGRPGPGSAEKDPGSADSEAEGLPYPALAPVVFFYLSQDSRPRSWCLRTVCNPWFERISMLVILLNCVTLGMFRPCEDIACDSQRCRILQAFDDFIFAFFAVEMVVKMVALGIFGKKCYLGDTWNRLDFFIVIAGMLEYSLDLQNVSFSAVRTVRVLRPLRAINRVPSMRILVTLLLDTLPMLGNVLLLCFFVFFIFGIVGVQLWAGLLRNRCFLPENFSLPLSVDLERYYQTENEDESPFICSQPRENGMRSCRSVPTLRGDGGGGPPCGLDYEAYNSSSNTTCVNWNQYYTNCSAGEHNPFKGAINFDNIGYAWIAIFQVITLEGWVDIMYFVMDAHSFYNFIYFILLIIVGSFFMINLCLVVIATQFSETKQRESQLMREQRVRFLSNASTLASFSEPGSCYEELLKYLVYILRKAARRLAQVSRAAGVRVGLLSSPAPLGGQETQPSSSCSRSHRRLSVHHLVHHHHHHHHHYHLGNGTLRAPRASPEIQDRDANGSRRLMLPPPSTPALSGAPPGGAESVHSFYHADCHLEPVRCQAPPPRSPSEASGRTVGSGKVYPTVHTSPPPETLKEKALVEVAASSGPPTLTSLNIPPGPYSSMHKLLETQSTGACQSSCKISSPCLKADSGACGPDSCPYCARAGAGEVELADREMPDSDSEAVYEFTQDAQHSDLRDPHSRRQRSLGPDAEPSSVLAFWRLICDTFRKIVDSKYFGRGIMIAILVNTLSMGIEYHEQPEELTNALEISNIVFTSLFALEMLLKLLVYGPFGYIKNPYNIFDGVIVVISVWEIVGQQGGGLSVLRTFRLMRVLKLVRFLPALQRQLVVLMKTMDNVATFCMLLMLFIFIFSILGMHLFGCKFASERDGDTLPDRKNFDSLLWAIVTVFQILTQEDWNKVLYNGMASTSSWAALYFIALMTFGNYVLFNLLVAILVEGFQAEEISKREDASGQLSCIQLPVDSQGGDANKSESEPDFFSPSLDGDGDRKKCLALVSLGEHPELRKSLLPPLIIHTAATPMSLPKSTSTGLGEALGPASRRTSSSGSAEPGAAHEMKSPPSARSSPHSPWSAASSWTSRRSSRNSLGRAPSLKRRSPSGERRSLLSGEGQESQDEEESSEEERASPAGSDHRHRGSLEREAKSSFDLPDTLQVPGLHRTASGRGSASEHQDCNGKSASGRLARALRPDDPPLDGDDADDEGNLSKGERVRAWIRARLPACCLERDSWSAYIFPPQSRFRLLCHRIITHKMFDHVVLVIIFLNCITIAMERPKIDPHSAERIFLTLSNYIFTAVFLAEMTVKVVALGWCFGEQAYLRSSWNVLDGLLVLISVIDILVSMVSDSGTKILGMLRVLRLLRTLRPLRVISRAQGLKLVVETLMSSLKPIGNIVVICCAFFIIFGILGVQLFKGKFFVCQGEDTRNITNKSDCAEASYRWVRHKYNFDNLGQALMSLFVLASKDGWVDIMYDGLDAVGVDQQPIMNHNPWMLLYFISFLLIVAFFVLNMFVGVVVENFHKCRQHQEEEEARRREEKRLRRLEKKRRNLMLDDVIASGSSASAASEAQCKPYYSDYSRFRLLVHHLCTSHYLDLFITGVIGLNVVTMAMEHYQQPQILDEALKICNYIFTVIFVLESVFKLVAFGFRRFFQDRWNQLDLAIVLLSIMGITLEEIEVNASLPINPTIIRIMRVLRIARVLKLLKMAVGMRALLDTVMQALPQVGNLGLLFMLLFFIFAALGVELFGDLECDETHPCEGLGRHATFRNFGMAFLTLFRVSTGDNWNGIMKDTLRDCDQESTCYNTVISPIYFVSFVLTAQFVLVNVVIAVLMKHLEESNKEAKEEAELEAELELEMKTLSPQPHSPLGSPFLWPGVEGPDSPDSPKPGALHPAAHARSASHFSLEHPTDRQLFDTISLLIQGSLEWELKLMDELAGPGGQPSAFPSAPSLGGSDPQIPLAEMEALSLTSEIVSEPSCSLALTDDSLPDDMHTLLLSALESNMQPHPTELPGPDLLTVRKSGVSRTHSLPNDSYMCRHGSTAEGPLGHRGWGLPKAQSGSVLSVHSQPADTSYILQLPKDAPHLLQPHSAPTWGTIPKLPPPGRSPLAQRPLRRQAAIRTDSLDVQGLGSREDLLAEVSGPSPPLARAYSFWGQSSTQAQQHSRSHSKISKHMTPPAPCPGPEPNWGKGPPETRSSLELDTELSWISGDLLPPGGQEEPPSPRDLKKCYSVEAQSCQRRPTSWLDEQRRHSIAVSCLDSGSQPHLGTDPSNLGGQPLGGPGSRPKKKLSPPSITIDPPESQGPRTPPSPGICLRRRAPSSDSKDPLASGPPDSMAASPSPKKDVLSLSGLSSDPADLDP

| Compound | IC50 [1] [µM] | IC50 [2] [µM] |
| --- | --- | --- |
| CCCNC(=O)CN1CCC(CNC(=O)c2cc(F)cc(Cl)c2)CC1 [Compound 452, 3-chloro-5-fluoro-N-((1-(2-oxo-2-(propylamino)ethyl)piperidin-4-yl)methyl)benzamide] | 4.24 | 7.92 |
| CCCNC(=O)CN1CCC(CNC(=O)c2cccc(OC(F)(F)F)c2)CC1 [Compound 453, N-((1-(2-oxo-2-(proyplamino)ethyl)piperidin-4-yl)methyl)-3-(trifluoromethoxy)benzamide] | 8.24 | > 10 |
| Cc1cc(C)cc(C(=O)NCC2CCN(CC(=O)NC(C)(C)C(F)(F)F)CC2)c1 [Compound 454, 3,5-dimethyl-N-((1-(2-oxo-2-(1,1,1-trifluoro-2-methylpropan-2-ylamino)ethyl)piperidin-4-yl)methyl)benzamide] | < 0.3 | 0.04 |
| Cc1cc(F)cc(C(=O)NCC2CCN(CC(=O)NC(C)(C)C(F)(F)F)CC2)c1 [Compound 455, 3-fluoro-5-methyl-N-((1-(2-oxo-2-(1,1,1-trifluoro-2-methylpropan-2-ylamino)ethyl)piperidin-4-yl)methyl)benzamide] | < 0.3 | 0.03 |
| COc1cc(F)cc(C(=O)NCC2CCN(CC(=O)NC(C)(C)C(F)(F)F)CC2)c1 [Compound 456, 3-fluoro-5-methoxy-N-((1-(2-oxo-2-(1,1,1-trifluoro-2-methylpropan-2-ylamino)ethyl)piperidin-4-yl)methyl)benzamide] | < 0.3 | 0.02 |
| CC(C)(NC(=O)CN1CCC(CNC(=O)c2cccc(C(F)(F)F)c2)CC1)C(F)(F)F [Compound 458, N-((1-(2-oxo-2-(1,1,1-trifluoro-2-methylpropan-2-ylamino)ethyl)piperidin-4-yl)methyl)-3-(trifluoromethyl)benzamide] | < 0.3 | 0.04 |
| CC(C)(NC(=O)CN1CCC(CNC(=O)c2cccc(Br)c2)CC1)C(F)(F)F [Compound 459, 3-bromo-N-((1-(2-oxo-2-(1,1,1-trifluoro-2-methylpropan-2-ylamino)ethyl)piperidin-4-yl)methyl)benzamide] | < 0.3 | 0.02 |
| Cc1cc(C)cc(C(=O)NCC2CCN(CC(=O)N3CCC[C@H]3C(F)(F)F)CC2)c1 [Compound 463, (S)-3,5-dimethyl-N-((1-(2-oxo-2-(2-(trifluoromethyl)pyrrolidin-1-yl)ethyl)piperidin-4-yl)methyl) benzamide] | < 0.3 | 0.21 |
| Cc1cc(F)cc(C(=O)NCC2CCN(CC(=O)N3CCC[C@H]3C(F)(F)F)CC2)c1 [Compound 464, (S)-3-fluoro-5-methyl-N-((1-(2-oxo-2-(2-(trifluoromethyl)pyrrolidin-1-yl)ethyl)piperidin-4-yl)methyl)benzamide] | < 0.3 | 0.14 |
| COc1cc(F)cc(C(=O)NCC2CCN(CC(=O)N3CCC[C@H]3C(F)(F)F)CC2)c1 [Compound 465, (S)-3-fluoro-5-methoxy-N-((1-(2-oxo-2-(2-(trifluoromethyl)pyrrolidin-1-yl)ethyl)piperidin-4-yl)methyl)benzamide] | < 0.3 | 0.17 |
| COc1cc(OC)cc(C(=O)NCC2CCN(CC(=O)N3CCC[C@H]3C(F)(F)F)CC2)c1 [Compound 466, (S)-3,5-dimethoxy-N-((1-(2-oxo-2-(2-(trifluoromethyl)pyrrolidin-1-yl)ethyl)piperidin-4-yl)methyl)benzamide] | < 0.3 | 0.27 |
| O=C(NCC1CCN(CC(=O)N2CCC[C@H]2C(F)(F)F)CC1)c1cccc(C(F)(F)F)c1 [Compound 467, (S)-N-((1-(2-oxo-2-(2-(trifluoromethyl)pyrrolidin-1-yl)ethyl)piperidin-4-yl)methyl)-3-(trifluoromethyl)benzamide] | < 0.3 | 0.17 |
| O=C(NCC1CCN(CCNC(=O)C2(C(F)(F)F)CC2)CC1)c1cccc(OC(F)(F)F)c1 [Compound 474, 3-(trifluoromethoxy)-N-((1-(2-(1-(trifluoromethyl)cyclopropanecarbox-amido)ethyl)piperidin-4-yl)methyl) benzamide] | < 0.3 | 0.04 |
| Cc1cc(C)cc(C(=O)NCC2CCN(CC(=O)NC3(C)CCC3)CC2)c1 [Compound 475, 3,5-dimethyl-N-((1-(2-(1-methylcyclobutylamino)-2-oxoethyl)piperidin-4-yl)methyl) benzamide] | < 0.3 | 0.17 |
| CC1(NC(=O)CN2CCC(CNC(=O)c3cccc(C(F)(F)F)c3)CC2)CCC1 [Compound 479, N-((1-(2-(1-methylcyclobutylamino)-2-oxoethyl)piperidin-4-yl)methyl)-3-(trifluoromethyl)benzamide] | < 0.3 | 0.15 |
| CC1(NC(=O)CN2CCC(CNC(=O)c3cccc(Br)c3)CC2)CCC1 [Compound 480, 3-bromo-N-((1-(2-(1-methylcyclobutylamino)-2-oxoethyl)piperidin-4-yl)methyl) benzamide] | < 0.3 | 0.18 |

| Compound | IC50 [1] [µM] | IC50 [2] [µM] |
| --- | --- | --- |
| CC1(NC(=O)CN2CCC(CNC(=O)c3cccc(Cl)c3)CC2)CCC1 [Compound 481, 3-chloro-N-((1-(2-(1-methylcyclo-butylamino)-2-oxoethyl)piperidin-4-yl)methyl)benzamide] | < 0.3 | 0.25 |
| CC1(NC(=O)CN2CCC(CNC(=O)c3cccc(OC(F)(F)F)c3)CC2)CCC1 [Compound 483, N-((1-(2-(1-methylcyclobutylamino)-2-oxoethyl)piperidin-4-yl)methyl)-3-(trifluoromethoxy)benzamide] | < 0.3 | 0.11 |
| CCONC(=O)CN1CCC(CNC(=O)c2cc(C(F)(F)F)cc(C(F)(F)F)c2)CC1 [Compound 486, N-((1-(2-(ethoxyamino)-2-oxoethyl)piperidin-4-yl)methyl)-3,5-bis(trifluoromethyl)benzamide] | > 10 | > 10 |
| Cc1cc(C)cc(C(=O)NCC2CCN(CCNC(=O)C(C)(C)C(F)(F)F)CC2)c1 [Compound 488, 3,5-dimethyl-N-((1-(2-(3,3,3-trifluoro-2,2-dimethylpropanamido)ethyl)piperidin-4-yl)methyl)benzamide] | 0.42 | 0.13 |
| COc1cc(OC)cc(C(=O)NCC2CCN(CCNC(=O)C(C)(C)C(F)(F)F)CC2)c1 [Compound 491, 3,5-dimethoxy-N-((1-(2-(3,3,3-trifluoro-2,2-dimethylpropanamido)ethyl)piperidin-4-yl)methyl)benzamide] | < 0.3 | 0.19 |
| CC(C)(C(=O)NCCN1CCC(CNC(=O)c2cccc(Cl)c2)CC1)C(F)(F)F [Compound 494, 3-chloro-N-((1-(2-(3,3,3-trifluoro-2,2-dimethylpropanamido)ethyl)piperidin-4-yl)methyl)benzamide] | < 0.3 | 0.16 |
| CC(C)(C(=O)NCCN1CCC(CNC(=O)c2cccc(OC(F)(F)F)c2)CC1)C(F)(F)F [Compound 496, N-((1-(2-(3,3,3-trifluoro-2,2-dimethylpropanamido)ethyl)piperidin-4-yl)methyl)-3-(trifluoromethoxy)benzamide] | < 0.3 | 0.09 |
| Cc1cc(C)cc(C(=O)NCC2CCN(CCNC(=O)C3(C(F)(F)F)CC3)CC2)c1 [Compound 497, 3,5-dimethyl-N-((1-(2-(1-(trifluoromethyl)cyclopropanecarbox-amido)ethyl)piperidin-4-yl)methyl) benzamide] | 0.77 | 0.16 |
| Cc1cc(F)cc(C(=O)NCC2CCN(CCNC(=O)C3(C(F)(F)F)CC3)CC2)c1 [Compound 498, 3-fluoro-5-methyl-N-((1-(2-(1-(trifluoromethyl)cyclopropanecarbox-amido)ethyl)piperidin-4-yl)methyl) benzamide] | 0.77 | 0.22 |
| O=C(NCC1CCN(CCNC(=O)C2(C(F)(F)F)CC2)CC1)c1cccc(Cl)c1 [Compound 502, 3-chloro-N-((1-(2-(1-(trifluoromethyl)cyclopropanecarbox-amido)ethyl)piperidin-4-yl)methyl) benzamide] | 0.59 | 0.23 |
| CC(C)(C)N/C(CN1CCC(CNC(=O)c2cc(C(F)(F)F)cc(C(F)(F)F)c2)CC1)=N\C#N [Compound 503, (Z)-N-((1-(2-(tert-buylamino)-2-(cyanoimino)ethyl)piperidin-4-yl)methyl)-3,5-bis(trifluoromethyl) benzamide] | 1.55 | 7.2 |
| O=C(NCC1CCN(CC(=O)N2CCC[C@@H]2C(F)(F)F)CC1)c1cc(F)cc(Cl)c1 [Compound 504, (R)-3-chloro-5-fluoro-N-((1-(2-oxo-2-(2-(trifluoromethyl)pyrrolidin-1-yl)ethyl)piperidin-4-yl)methyl) benzamide] | 0.42 | 0.42 |
| COc1cc(F)cc(C(=O)NCC2CCN(CC(=O)N3CCC[C@@H]3C(F)(F)F)CC2)c1 [Compound 505, (R)-3-fluoro-5-methoxy-N-((1-(2-oxo-2-(2-(trifluoromethyl)pyrrolidin-1-yl)ethyl)piperidin-4-yl)methyl) benzamide] | 0.77 | 0.58 |
| Cc1cc(F)cc(C(=O)NCC2CCN(CC(=O)N3CCC[C@@H]3C(F)(F)F)CC2)c1 [Compound 506, (R)-3-fluoro-5-methyl-N-((1-(2-oxo-2-(2-(trifluoromethyl)pyrrolidin-1-yl)ethyl)piperidin-4-yl)methyl) benzamide] | 5.36 | 1.48 |
| O=C(NCC1CCN(CC(=O)N2CCC[C@@H]2C(F)(F)F)CC1)c1cccc(Cl)c1 [Compound 507, (R)-3-chloro-N-((1-(2-oxo-2-(2-(trifluoromethyl)pyrrolidin-1-yl)ethyl)piperidin-4-yl)methyl) benzamide] | 2.98 | 1.48 |
| O=C(NCC1CCN(CC(=O)N2CCC[C@@H]2C(F)(F)F)CC1)c1cccc(F)c1 [Compound 508, (R)-3-fluoro-N-((1-(2-oxo-2-(2-(trifluoromethyl)pyrrolidin-1-yl)ethyl)piperidin-4-yl)methyl) benzamide] | > 10 | 9.22 |
